The source of these data is patent US20220265723A1, “NON-VIRAL MODIFICATION OF MESENCHYMAL STEM CELLS” (NATIONAL UNIVERSITY OF SINGAPORE, priority 2019, published 2022).

Where two headings read alike, the source gives them in different places.

The conditions of assay [1]: cited from earlier work; for Potential of activation (fold): per enzyme/prodrug system.
In a further assay the test system is CDy::UPRT_AT-MSCs. In words: Sensitivity of modified AT-MSCs to 5FC and 5FU, MTS assay. It counts as cell-based, human. The method, then:
The cell viability at each time point was measured by standard MTS assay. At various time points, samples without 5FC treatment served as control. […] MTS assay were used to measure cell viability post treatment. Conditions without 5FU treatment was taken as 100%. Results were presented as mean±SD (n=4). […] Isotype antibodies served as respective controls. […] At the end of incubation, cells were stained with Alizarin red S. Calcium deposits stained with Alizarin red S were one of the phenotype indicating differentiated AT-MSCs. […] Fourteen days later, cells were stained with Oil Red-O. This dye stained for oil droplets visible in the cells, indicative of adipogenic differentiation. The images were captured at 20× magnification;
Quadruplicates of AT-MSC, MKN1, MKN45, MDA-MB-231 (10,000 cells per well) and U-251MG (4000 cells per well) for each treatment were plated into 96-well plates. […] One to five days later, plates were subjected to the CellTiter 96 Aqueous One Solution Cell Proliferation Assay (Promega). The colorimetric read out was measured spectrophotometrically at 490 nm. Results were expressed as the percentage of cell viability, in relative to cells in condition without 5-FC or 5-FU (set to 100%).
A general note: Formazan colour is commonly taken as a measure of viable cells.

Assay [2] concerns prodrug-activating enzyme of each system: CA, CD, CPG2, Cyt-450, dCK, HSV-TK, NR, PNP, TP, VZV-TK. The note with it: systems: CA/CPT-11, CD/5-FC, CPG2/CMDA, Cyt-450/CP, IF, dCK/ara-C, HSV-TK/GCV, ACV, NR/CB1954, PNP/6-MePdR, TP/5′-DFUR, VZV-TK/ara-M; read-out: KM (S0.5); cited from earlier work.
For assay [3] the following is noted: systems: CA/CPT-11, CD/5-FC, CPG2/CMDA, CJS278, Cyt-450, dCK/ara-C, HSV-TK, NR/CB1954, PNP/6-MePdR, TP/5′-DFUR, VZV-TK/ara-M, XGPRT/6-TX, 6-TG; cited from earlier work.
Setting [4] is: active drug formed from the prodrug of the system, read-out: Potency, IC50 (μM) Drug.
[5] abbreviates: prodrug of the enzyme/prodrug system, read-out: Potency, IC50 (μM) Prodrug.

By IC50 is commonly meant the concentration at which inhibition is half-maximal. `Cc1ncnc2nc[nH]c12`: the IC50 in assay [1] (setting [4]) was 3.7 µM.
On to `O=c1[nH]c(=O)n([C@H]2C[C@H](O)[C@@H](CO)O2)cc1F` [5-FUdR], for which the IC50 in assay [1] (setting [4]) is 0.0023 µM.
Turning to `Nc1nc(=O)[nH]cc1F` [5FC, 5-fluorocytosine], in the assay with CDy::UPRT_AT-MSCs (150 μg/mL 5FC, over time), the “cell viability of CDy::UPRT modified AT-MSCs” value is recorded as “reduced cell viability over time”.
For the molecule `O=c1[nH]cc(F)c(=O)[nH]1` [5FU, 5-fluorouracil], in the assay on CDy::UPRT_AT-MSCs (100 μg/mL 5FU, 5 days), the “susceptibility of CDy::UPRT_AT-MSCs versus unmodified AT-MSCs” value is “increased susceptibility of suicide effect”. Moreover, in assay [1] (setting [4]), the IC50 was 4 to 23.5 µM.
As a reminder, the Km is the concentration of substrate that gives half-maximal velocity. As for `C[C@H]1O[C@@H](n2cc(F)c(=O)[nH]c2=O)[C@H](O)[C@@H]1O` [5′-DFUR], the “Potential of activation (fold)” value in assay [1] is reported as 7000 fold. Further, the IC50 in assay [1] (setting [5]) is 17 µM. Besides, the Km in assay [2] is 325 to 433 µM. Also, in assay [3], the “Degree of activation (fold)” value was 165 fold.
Turning to `Cc1ncnc2c1ncn2[C@H]1C[C@H](O)[C@@H](CO)O1` [6-MePdR], the “Potential of activation (fold)” value in assay [1] is recorded as 25-1,000 fold. For the same molecule, the IC50 in assay [1] (setting [5]) is above 200 µM. Besides, the Km in assay [2] is 14 to 23 µM. Further, in assay [3], the “Degree of activation (fold)” value is recorded as 40 fold.
With `Nc1nc(=S)c2[nH]cnc2[nH]1` [6-TG], the IC50 in assay [1] (setting [5]) was 0.5 µM. Moreover, in assay [3], the “Degree of activation (fold)” value was 6-TG: 10 fold.
`O=c1[nH]c(=S)c2[nH]cnc2[nH]1` [6-TX]: the IC50 in assay [1] (setting [5]) was above 50 µM. Further, the “Degree of activation (fold)” value in assay [3] is on record as 6-TX: >20; fold.
For `NC(=O)c1cc(N2CC2)c([N+](=O)[O-])cc1[N+](=O)[O-]` [CB1954], in assay [1], the “Potential of activation (fold)” value is given as >50,000 fold. Also, the IC50 in assay [1] (setting [5]) was above 1000 µM. Besides, in assay [2], the Michaelis-Menten constant (Km) was 900 µM. Further, the “Degree of activation (fold)” value in assay [3] is recorded as 14-10,000 fold.
As to `CS(=O)(=O)OCCN(CCCl)c1ccc(C(=O)O)cc1` [CMBA], the IC50 in assay [1] (setting [4]) was 8 to 65 µM.
Turning to `CS(=O)(=O)OCCN(CCCl)c1ccc(C(=O)N[C@@H](CCC(=O)O)C(=O)O)cc1` [CMDA], the IC50 in assay [1] (setting [5]) was 1700 to 3120 µM. Moreover, the Km in assay [2] is 3.4 µM.
`CCc1c2c(nc3ccc(OC(=O)N4CCC(N5CCCCC5)CC4)cc13)-c1cc3c(c(=O)n1C2)COC(=O)[C@]3(O)CC` [CPT-11]: the half-inhibitory concentration (IC50) in assay [1] (setting [5]) was 1.6 to 8.1 µM.
Consider `O=P1(N(CCCl)CCCl)NCCCO1` (centres unmarked) [CP], for which the IC50 in assay [1] (setting [5]) is around 4000 µM. Besides, in assay [2], the Km is 300 µM.
As to `COc1cccc2c1C(=O)c1c(O)c3c(c(O)c1C2=O)C[C@@](O)(C(=O)CO)C[C@@H]3O[C@H]1C[C@H](N)[C@H](O)[C@H](C)O1` [Doxorubicin], in assay [1] (setting [4]), the IC50 is 0.012 µM. Moreover, the “Potential of activation (fold)” value in assay [1] is given as 21 fold. The “Degree of activation (fold)” value in assay [3] is 11 fold.
As for `Nc1nc(O)c2ncn(COC(CO)CO)c2n1` [GCV, ganciclovir], the IC50 in assay [1] (setting [5]) is 200 to 600 µM.
Take `O=P1(NCCCl)OCCCN1CCCl` (centres unmarked) [IF]: in assay [1] (setting [5]), the IC50 was around 4000 µM. Further, in assay [2], the Km was 480 µM.
Consider `CCc1c2c(nc3ccc(O)cc13)-c1cc3c(c(=O)n1C2)COC(=O)[C@]3(O)CC` [SN-38], for which the IC50 in assay [1] (setting [4]) is 0.003 to 0.011 µM.
With `Nc1ccn([C@@H]2O[C@H](CO)[C@@H](O)[C@@H]2O)c(=O)n1` [ara-C], the IC50 in assay [1] (setting [5]) is 0.3 to 0.6 µM. Moreover, the Michaelis-Menten constant (Km) in assay [2] is 25.6 µM. The “Degree of activation (fold)” value in assay [3] is recorded as 2-100 fold.
For `COc1ncnc2c1ncn2[C@@H]1O[C@H](CO)[C@@H](O)[C@@H]1O` [ara-M], the “Potential of activation (fold)” value in assay [1] is on record as >2,000 fold. Further, in assay [1] (setting [5]), the IC50 is above 2000 µM. For the same molecule, the Km in assay [2] was 56 µM. In addition, the “Degree of activation (fold)” value in assay [3] was 55-600 fold.
